# The supplement of paper PMC10307832
# What was measured:
# Experiment in all cases: relative viability (nuclei count vs DMSO), 5 days (fraction); higher = more cells survive
# Bleomycin + Palbociclib = compound: CC1=C(N=C(N=C1N)[C@H](CC(=O)N)NC[C@@H](C(=O)N)N)C(=O)N[C@@H]([C@H](C2=CN=CN2)OC3C(C(C(C(O3)CO)O)O)OC4C(C(C(C(O4)CO)O)OC(=O)N)O)C(=O)N[C@H](C)[C@H]([C@H](C)C(=O)N[C@@H]([C@@H](C)O)C(=O)NCCC5=NC(=CS5)C6=NC(=CS6)C(=O)NCCC[S+](C)C)O [Bleomycin] + CC(=O)c1c(C)c2cnc(Nc3ccc(N4CCNCC4)cn3)nc2n(C2CCCC2)c1=O [Palbociclib] (partner 0.5 µM); conditions: main component drawn
# In short: (§1)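 Lung cancer cell lines in 1536-well plates were dosed by pin tool the day after seeding, either with one drug alone or with a fixed anchor-drug dose plus five library-drug doses (not always all listed) in √10 steps. After 5 days, cells were fixed and their nuclei stained in one step (final 0.05% Triton X-100, 1% formaldehyde, 1 ug/ml Hoechst), then counted on 4× images. Relative viability is the nuclei count in treated wells divided by that in vehicle wells. Values are medians of duplicate plates.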
# Bleomycin + AZD7762 = compound: CC1=C(N=C(N=C1N)[C@H](CC(=O)N)NC[C@@H](C(=O)N)N)C(=O)N[C@@H]([C@H](C2=CN=CN2)OC3C(C(C(C(O3)CO)O)O)OC4C(C(C(C(O4)CO)O)OC(=O)N)O)C(=O)N[C@H](C)[C@H]([C@H](C)C(=O)N[C@@H]([C@@H](C)O)C(=O)NCCC5=NC(=CS5)C6=NC(=CS6)C(=O)NCCC[S+](C)C)O [Bleomycin] + NC(=O)Nc1cc(-c2cccc(F)c2)sc1C(=O)N[C@H]1CCCNC1 [AZD7762] (partner 0.2 µM); conditions: main component drawn
# In short: as §1
# Etoposide + Crizotinib = compound: COc1cc([C@@H]2c3cc4c(cc3[C@@H](O[C@@H]3O[C@@H]5CO[C@@H](C)O[C@H]5[C@H](O)[C@H]3O)[C@H]3COC(=O)[C@H]23)OCO4)cc(OC)c1O [Etoposide] + C[C@@H](Oc1cc(-c2cnn(C3CCNCC3)c2)cnc1N)c1c(Cl)ccc(F)c1Cl [Crizotinib] (partner 1 µM)
# In short: as §1
# Etoposide + Decitabine = compound: COc1cc([C@@H]2c3cc4c(cc3[C@@H](O[C@@H]3O[C@@H]5CO[C@@H](C)O[C@H]5[C@H](O)[C@H]3O)[C@H]3COC(=O)[C@H]23)OCO4)cc(OC)c1O [Etoposide] + Nc1ncn([C@H]2C[C@H](O)[C@@H](CO)O2)c(=O)n1 [Decitabine] (partner 2 µM)
# In short: as §1
Cell Line,relative viability (Bleomycin + Palbociclib; first compound 0.01 µM),relative viability (Bleomycin + Palbociclib; first compound 0.03162 µM),relative viability (Bleomycin + Palbociclib; first compound 0.1 µM),relative viability (Bleomycin + Palbociclib; first compound 0.3162 µM),relative viability (Bleomycin + Palbociclib; first compound 1 µM),relative viability (Bleomycin + AZD7762; first compound 0.01 µM),relative viability (Bleomycin + AZD7762; first compound 0.03162 µM),relative viability (Bleomycin + AZD7762; first compound 0.1 µM),relative viability (Bleomycin + AZD7762; first compound 0.3162 µM),relative viability (Bleomycin + AZD7762; first compound 1 µM),relative viability (Etoposide + Crizotinib; first compound 0.01 µM),relative viability (Etoposide + Crizotinib; first compound 0.03162 µM),relative viability (Etoposide + Crizotinib; first compound 0.1 µM),relative viability (Etoposide + Crizotinib; first compound 0.3162 µM),relative viability (Etoposide + Crizotinib; first compound 1 µM),relative viability (Etoposide + Decitabine; first compound 0.01 µM),relative viability (Etoposide + Decitabine; first compound 0.03162 µM),relative viability (Etoposide + Decitabine; first compound 0.1 µM),relative viability (Etoposide + Decitabine; first compound 0.3162 µM),relative viability (Etoposide + Decitabine; first compound 1 µM)
NCI-H460,0.0989,0.126,0.0546,0.0357,0.0284,0.409,0.475,0.269,0.134,0.0663,0.708,0.498,0.476,0.0396,0.0142,0.432,0.454,0.319,0.105,0.0405
LCLC-103H,0.501,0.525,0.547,0.373,0.43,0.7,0.8,0.792,0.666,0.418,1.09,1.02,0.984,1.06,0.988,0.763,0.835,0.766,0.71,0.599
LCLC-97TM1,0.154,0.211,0.157,0.112,0.101,0.135,0.141,0.102,0.0831,0.0741,–,0.382,0.241,0.155,0.111,0.253,0.222,0.302,0.129,0.11
NCI-H838,0.22,0.173,0.169,0.153,0.129,0.701,0.68,0.661,0.594,0.649,0.85,0.846,0.973,0.522,0.345,0.445,0.487,0.49,0.367,0.248
NCI-H1355,0.402,0.382,0.396,0.253,0.221,0.783,0.9,0.783,0.63,0.323,0.918,1.15,0.5,0.674,0.306,0.362,0.384,0.363,0.279,0.287
HOP-62,0.249,0.259,0.285,0.167,0.125,0.325,0.292,0.209,0.16,0.0932,0.96,0.998,0.799,0.681,0.157,0.227,0.199,0.212,0.207,0.179
NCI-H2085,0.443,0.455,0.432,0.324,0.355,0.896,0.967,0.828,0.301,0.464,0.91,0.871,0.827,0.5,0.326,0.609,0.573,0.484,0.373,0.374
